As usually defined, the Km is the concentration of substrate that gives half-maximal velocity.

Assay [1] addresses T1, AtFAAH (Arabidopsis fatty acid amide hydrolase) (Arabidopsis thaliana, UniProt Q7XJJ7).
T1 construct: gene FAAH
T1 sequence (Q7XJJ7 1-607): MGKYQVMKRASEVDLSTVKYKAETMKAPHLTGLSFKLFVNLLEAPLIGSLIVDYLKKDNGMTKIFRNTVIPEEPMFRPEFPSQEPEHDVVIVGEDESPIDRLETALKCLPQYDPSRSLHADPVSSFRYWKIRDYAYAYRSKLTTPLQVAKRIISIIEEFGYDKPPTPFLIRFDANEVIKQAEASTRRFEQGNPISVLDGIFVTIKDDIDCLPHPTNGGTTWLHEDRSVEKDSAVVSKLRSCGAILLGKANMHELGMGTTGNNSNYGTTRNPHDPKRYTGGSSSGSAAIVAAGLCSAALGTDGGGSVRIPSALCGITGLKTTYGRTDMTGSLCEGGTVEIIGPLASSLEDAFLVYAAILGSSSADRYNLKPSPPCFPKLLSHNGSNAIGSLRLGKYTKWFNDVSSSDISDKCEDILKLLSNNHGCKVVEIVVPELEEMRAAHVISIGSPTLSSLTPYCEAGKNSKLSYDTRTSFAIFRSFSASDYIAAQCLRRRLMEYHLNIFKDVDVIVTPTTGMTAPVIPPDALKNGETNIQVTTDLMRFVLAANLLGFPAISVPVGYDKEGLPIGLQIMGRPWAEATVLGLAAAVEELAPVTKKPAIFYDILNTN
Description: radiometric TLC amidohydrolase assay. The assay is classed as biochemical. Particulars: activator (raises apparent Vmax, not Km); 100 μM [14C]-NAE 12:0; pH 9, 0.2 mM DDM, 30 °C.

Assay [2] has as its target T1, AtFAAH (Arabidopsis fatty acid amide hydrolase). Description: radiometric TLC amidohydrolase assay, initial velocities, Michaelis-Menten. The assay is classed as biochemical. Particulars: labelled compound ([1-14C]); pH 9 Bis-Tris propane, 0.2 mM DDM, 30 °C; range covers without and with 100 μM MDPD; read-out: apparent Km.

As to `COc1ccccc1-n1cc2c(c1-c1ccccc1)c(=O)n(C)c(=O)n2C` [MDPD, 6-(2-methoxyphenyl)-1,3-dimethyl-5-phenyl-1H-pyrrolo[3,4-d]pyrimidine-2,4(3 H,6 H)-dione], the “fold increase in activity at 100 μM” value in assay [1] is recorded as ~ 4 fold. With `CCCCCCCCCCCC(=O)NCCO` [NAE 12:0, N-lauroylethanolamine], the Michaelis constant (Km) in assay [2] was 27 to 28 µM.

(Values after article PMC5253734, “A chemical genetic screen uncovers a small molecule enhancer of the N-acylethanolamine degrading enzyme, fatty acid amide hydrolase, in Arabidopsis” (Scientific Reports, 2017).)
